Source: BindingDB's records for PubMed 38373290 (University of the Republic (UdelaR))
pIC50: −log10 of the molar value.

Target: Metallo-beta-lactamase type 2 (Klebsiella pneumoniae, UniProt C7C422)
Test: Inhibition of his6-tagged NDM-1 (unknown origin) expressed in Escherichia coli BL21-DE3 incubated for 16 hrs

Sequence of Metallo-beta-lactamase type 2 (C7C422 whole entry): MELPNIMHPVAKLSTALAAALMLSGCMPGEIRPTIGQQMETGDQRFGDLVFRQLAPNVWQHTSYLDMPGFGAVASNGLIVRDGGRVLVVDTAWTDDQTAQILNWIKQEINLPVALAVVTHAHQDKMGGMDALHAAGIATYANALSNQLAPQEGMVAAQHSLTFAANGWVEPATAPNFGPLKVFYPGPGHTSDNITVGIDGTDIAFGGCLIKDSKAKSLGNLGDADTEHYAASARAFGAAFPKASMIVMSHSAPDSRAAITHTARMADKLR

SMILES: SC[C@H]1SC[C@@H]2Nc3ccccc3N21
- pIC50: 6.11
